US9957311B2, “Surface-binding peptide” (TIKOMED AB, priority 2013, dated 2018)
Entries after “also recorded” stand apart in the source; their conditions may differ. One block for each substance: values may come before it.

Key:
[1] = Binding of IP-10 derived short peptides to TiO2 P25 particles, absorbance at 206 nm (Experiment 2); settings: Experiment 2, 50 μg/ml peptide, 25 mg TiO2, 3 h room temperature
Protocol: 5 mg of eleven peptides (Table 2) were dissolved with 1 ml of water for molecular biology (Sigma-Aldrich, St. Louis, Mo., USA). Working solutions of the different peptides were diluted further with phosphate buffered saline (PBS) (PAA Laboratories GmbH, Pasching, Austria) to 50 μg/ml. 25 mg of TiO2 (P25 from Degussa and P90 from Sigma-Aldrich) were used for the studies. Briefly, 250 μl of peptide solution was incubated with 25 mg of TiO2 powder with different particle size (P25 and P90) in an orbital shaker (IKA Vibrax VXR basic, Staufen, Germany) for 3 h at room temperature. Different controls were used and processed in parallel with the other samples: solutions with peptides alone, PBS alone and P25/P90 in PBS. After this time, all the samples were centrifuged at 13.000×g for 3 min at 20° C. 100 μl of the supernatant solution was carefully collected and placed in a 96-well UV plate and read with PowerWave™ microplate spectrophotometer from BioTek. Absorbances at 206 nm and also spectrum curves for each sample were collected and analysed.

[2] = Binding of fluorescent IP-10 short peptides to titanium foils, fluorescence microscope (Experiment 3); settings: FITC-labeled peptides 50 μg/ml, 8×8 mm Ti foils, 3 h room temperature, FIG. 7
Protocol: 5 mg of the different peptides (Table 3), which were labeled with fluorescein isothiocyanate, were dissolved with 1 ml of water with molecular biology degree (Sigma-Aldrich, St. Louis, Mo., USA). Working solutions of the different peptides were diluted further with PBS (PAA Laboratories GmbH, Pasching, Austria) to 50 μg/ml. Briefly, 500 μl of peptide solution was incubated with 8×8 mm Ti foils (Sigma Aldrich, thickness 0.127 mm, 99.7%, cut into 8×8 mm^2 samples) in an orbital shaker (IKA Vibrax VXR basic, Staufen, Germany) for 3 h at room temperature. Experiments were run in duplicate.
Ti foils were rinsed twice with PBS to remove unbound labeled peptides. Remaining liquid was allowed to dry and samples were put on microscope slides. […] Two images of each surface were taken.

[3] = Binding of IP-10 derived peptides to TiO2 P90, absorbance at 206 nm (Experiment 1); settings: 50 μg/mL peptide in PBS, 20 mg TiO2 P90, 3 h room temperature, FIG. 3
Protocol: This experiment was conducted to find the exact region of the IP-10 molecule that binds to titanium. In this experiment the effect of TiO2 (diameter ˜14 nm, product number P 90, Aerosil Evonic Ind.) on peptides synthesized from the IP-10 molecule by absorbance measurements using a Spektro U29-10 Hitachi spectrophotometer.
Seventeen different peptides having sequences of various portion of IP-10 were dissolved in water and thereafter diluted to working solution (50 μg/mL) in phosphate buffered saline (PBS), see Table 1 and FIG. 2.
The absorbance of the peptides bound to TiO2 surfaces P90 from Sigma-Aldrich) were measured at 206 nm using a Spektro U29-10 Hitachi spectrophotometer. Briefly, 20 mg TiO2 (P90) was incubated with 250 μl of peptide solution. After 3 h incubation on a shaking device in room temperature, with vortexing every hour, the samples were centrifuged (13 000×g, 3 min) and the supernatant was collected. As a negative control, PBS alone was used and positive control was peptide solution alone. Every sample was made in double and the experiments were repeated.

[4] = Binding of IP-10 derived short peptides to nanoparticles, absorbance at 206 nm (Experiment 7); settings: 50 μg/ml peptide, 3 h room temperature, FIG. 14; for binding to TiO2 nanoparticles: 25 mg TiO2 21 nm; for binding to SiO2 particles: 25 mg SiO2 10-20 nm
Protocol: Lyophilized peptides were dissolved with water (Sigma, molecular biology degree) to a concentration of 5 mg/ml (Table 6). Working solutions of the different peptides were diluted further with PBS (PAA laboratories) to 50 μg/ml. 25 mg of TiO2 (Titanium(IV) oxide nanopowder, 21 nm particle size, catalog number 718467, Sigma-Aldrich), SiO2 (Silicon dioxide nanopowder, 10-20 nm particle size, catalog number […], Sigma-aldrich), MgO (Magnesium oxide nanopowder, <50 nm particle size, catalog number 549649, Sigma-Aldrich) were used for the studies. Briefly, 250 μl of peptide solution containing 50 μg/ml was incubated with 25 mg of the materials in an orbital shaker for 3 h at room temperature. Different controls were used and processed in parallel with the other samples: solutions with peptides alone, PBS alone and TiO2/SiO2/MgO in PBS. After this time, all the samples were centrifuged at 13.000×g for 3 min at 20° C. 100 μl of the supernatant solution was carefully collected and placed in a 96-well UV plate and read with PowerWave™ microplate spectrophotometer from BioTek. Absorbances at 206 nm and also spectrum curves for each sample were collected and analyzed.

integrin β3 = experiment: Immunocytochemistry of integrin β3 in MC3T3-E1 cells on peptide-coated Ti; assay type: cell-based; settings: FIG. 12; for integrin β3 staining: after 72 h of culture
Protocol: (§1) Under aseptic conditions, implants were immersed in a 3:7 (v/v) HNO3-DI water solution for 30 min at room temperature. Then, they were rinsed with milliQ water and placed in a covered milliQ water bath for 24 h. Implants were dried with N2 and were placed in a 96-well plates. Then, 200 μl of 50 μg/ml peptide solutions in PBS were added to each implant. Adsorption took place for 24 h at 37° C. in a humidified atmosphere. After 24 h peptide solutions were collected and surfaces were washed with 200 μl of PBS and air-dried in order to perform in vitro experiments.
(§2) MC3T3-E1 cells were routinely cultured at 37° C. in a humidified atmosphere of 5% CO2, and maintained in α-MEM supplemented with 10% FBS and antibiotics (50 IU penicillin/ml and 50 μg streptomycin/ml). 7.0×10^3 cells were seeded on the peptide-coated implants. Trypan blue stain was used to determine total and viable cell number. The same number of cells was cultured in parallel in plastic culture plates in the experiment. All experiments were performed after 4 passages of the MC3T3-E1 cells.
Cells grown for 24 and 72 h on the surfaces were fixed for 15 min with 4% formaldehyde in PBS at room temperature. Cells were incubated with 0.1% Triton X-100 for 5 min, 1% bovine serum albumin for 30 min and then with anti-integrin beta-3 antibody for 1 h at 1:50 dilution in PBS. Then, a Cy3-conjugated goat anti-rabbit IgG was used as secondary antibody for 1.5 h at 1:200 dilution in PBS. For actin cytoskeleton visualization, cells were stained with phalloidin-FITC 5 μg/mL in PBS for 30 min. Cells were washed with PBS and coin-shaped samples were placed on slides. Finally, a drop of Fluoroshield with DAPI was added and cover glasses were mounted on the samples. Two samples of each group were used to perform the experiment and two images of each sample were taken with the confocal microscope (Leica DMI 4000B equipped with Leica TCS SPE laser system).

MC3T3-E1 cells = experiment: DNA quantification (cell number) of cells on peptide-coated Ti; assay type: cell-based; settings: 48 h culture on Ti coated with 50 μg/ml peptide, FIG. 9
Protocol: as §1, with “Absorption” for “Adsorption”, “cell” for “in vitro”, “experiments. The surfaces were denoted Ti (uncoated Ti), P1 (Ti coated with IP10-RGD), P2 (Ti coated with IP10mut-RGD), P3 (Ti coated with IP10-RGDmut) and P4 (Ti coated with IP10mut-RGDmu).” for “experiments.”
as §2, with “α-minimum essential medium (α-MEM)” for “α-MEM”, “fetal bovine serum (FBS)” for “FBS”, “15” for “4”
Culture media was removed from wells and plates were frozen at −80° C. until the experiment was carried out. At the day of analysis, 100 μl of distilled water were added to each well. Plates were incubated for 1 hour at room temperature. Again, plates were frozen at −80° C. to lysate cells. Plates were thawed until reaching room temperature and 100 μl of Hoechst 33258 at 20 μg/ml in THE buffer were added. Then, 200 μl aliquots were transferred to 96-well fluorescence plates and a spectrophotometer was set to record fluorescence. Relative fluorescence units were correlated with the cell number using a linear standard curve.

- binding to TiO2 particles (in words) [1]: very strong binding
Substance: ATMKK (listed as Homo sapiens) [IP1]

Substance: FCSEPKKKMT (IP-10 derived peptide linked to randomized tag sequence) [IP10b]
- signal from the fluorescent peptides bound to Ti [2]: lower than for IP10 but higher than for IP10r

- binding to TiO2 P90 (percentage of peptides absorbed, ranking) [3]: bound most
Substance: IIATMKKKGEKRCLNPESKA (listed as Homo sapiens) [Peptide 5]

- binding to TiO2 P90 (percentage of peptides absorbed, ranking) [3]: bound most
Substance: IKNLLKAVSKERSKRSP (listed as Homo sapiens) [Peptide 6]

- binding to TiO2 particles (in words) [1]: very strong binding
Substance: KKGEI (IP-10 derived peptide) [IP5]

- binding to TiO2 particles (in words) [1]: very strong binding
- binding to TiO2 nanoparticles [4]: higher binding
Substance: KKKGE (listed as Homo sapiens) [IP4]

- binding to SiO2 particles [4]: binding
- binding to TiO2 nanoparticles [4]: binding
Substance: KRCLN (listed as Homo sapiens) [IPE]

- binding to TiO2 particles (in words) [1]: very strong binding
- binding to TiO2 nanoparticles [4]: higher binding
Substance: MKKKG (listed as Homo sapiens) [IP3]

Substance: MKKKGEGGGGGGGGRGES (IP-10 derived peptide connected to mutated RGD motif via poly-G-linker) [Peptide P3]
- integrin β3 signal (integrin β3; after 24 h of culture): showed integrin β3 signal
- integrin β3 staining (integrin β3): no clear staining; also recorded: disappeared

Substance: MTTTGEGGGGGGGGRGDS (Mutated IP-10 derived peptide connected to RGD motif via poly-G-linker) [Peptide P2]
- integrin β3 staining (integrin β3): no clear staining

Substance: MTTTGEGGGGGGGGRGES (Mutated IP-10 derived peptide connected to mutated RGD motif via poly-G-linker) [Peptide P4]
- number of cells (DNA quantification) (MC3T3-E1 cells): lowest
- number of cells (DNA quantification) (MC3T3-E1 cells; listed as double mutant peptide sequence): lastly
- integrin β3 staining (integrin β3): no clear staining

- signal from the fluorescent peptides bound to Ti [2]: lowest
Substance: PESCF (Randomized tag sequence) [IP10r]

- binding to SiO2 particles [4]: binding
- binding to TiO2 nanoparticles [4]: binding
Substance: RCLNP (listed as Homo sapiens) [IPF]

- binding to TiO2 nanoparticles [4]: higher binding
Substance: TMKKK (listed as Homo sapiens) [IP2]
- binding to TiO2 particles (in words) [1]: very strong binding; also recorded: best binding sequence

Substance: TMKKKPESCF (IP-10 derived peptide linked to randomized tag sequence) [IP10a]
- signal from the fluorescent peptides bound to Ti [2]: lower than for IP10 but higher than for IP10r
